These results are taken from patent US20260185056A1, “TRIPLE TISSUE CULTURE FUSION” (IMBA - INSTITUT FÜR MOLEKULARE BIOTECHNOLOGIE GMBH, priority 2022, published 2026).

Experiment [1] concerns ventral midbrain organoids. The experiment is described as follows: SAG dose curve for floor plate induction in ventral midbrain organoids (qPCR FOXA2). The class given is cell-based, human. Conditions: day 4-11, with dual SMAD inhibition and Wnt activation; by day 20. On the procedure:
FIG. 2A-D: qPCR analysis of markers of ventral midbrain of the dose curving experiment to generate ventral midbrain organoids. Two separate dose curving experiments were performed, where first the correct dosage of sonic hedgehog activation was tested (FIG. 2A, floor plate marker FOXA2). Secondly, we performed qPCR to test for appropriate concentrations of posteriorization using Wnt activation. Dopaminergic neurons are born in the very ventral floor plate of the posterior midbrain, next to the midbrain-hindbrain boundary, thus the Forebrain and Midbrain marker OTX2 should still be expressed, whereas the hindbrain is OTX2 negative. We found a concentration of 0.8-1 μM sufficient to introduce midbrain (FIG. 2B), while the floor plate marker FOXA2 was still expressed (FIG. 2C). qPCR for the dopaminergic marker TH (Tyrosine hydroxylase, the rate-limiting enzyme for dopamine synthesis) confirmed this concentration of Wnt activation, with a sharp drop of TH expression starting at 1.2 μM CHIR (FIG. 2D).
All qPCR data are relative to the expression of TBP.
For ventral midbrain organoid preparation, cells were grown for 2-3 days after splitting in MG coated 6 well plates and dissociated using 600 μl Accutase. […] Cells were resuspended in 1 ml stem cell media +1:100 RI and counted. […]
Quantification was performed in excel by calculating ΔCt relative to TBP. […]
For orientation: In qPCR the cycle at which signal appears reflects the starting amount.

The subject of a further experiment is striatal organoids. The experiment can be described thus: SAG dose-response curve in presence of IWP2 for LGE patterning of striatal organoids. The class given is cell-based, human. On the procedure:
Panel C, D: Quantifications of GSX2^+ rosettes and PAX6^− rosettes, indicating LGE identity.
Panel E-F: Immunolabeling of CTIP2, an important early striatal marker, in two conditions with promising numbers of GSX2^+ rosettes, but low PAX6 expression.
For striatal organoid preparation, cells were grown for 2-3 days after splitting in MG coated 6 well plates and dissociated using 600 μl Accutase. 9000 cells were then transferred into 150 μl neural induction media containing 10 nM SAG and 2.5 μM IWP2 (SigmaAldrich, Cat. #10536) as well as 1:100 ROCK inhibitor. Media was exchanged on day 2 by replacing 100 μl media with 150 μl fresh NI media containing 10 nM SAG, 2.5 μM IWP2 and 1:100 ROCK inhibitor.
Striatal neurons are born majorly from the lateral ganglionic eminence (LGE), from where they migrate and form the developing striatum (Fjodorova, Noakes and Li, Neurogenesis, 2(1), 2015, Ornorati et al., Nat. Neurosci. 17, 1804-15, 2014). To pattern into LGE, we performed a dose curve experiment in a Wnt inhibitory context (IWP-2, which anteriorized and inhibits dorsal fate) similar to previous 2D differentiation approaches (Wu et al., Stem Cell Reports 11, 635-650, 2018). In brief, we activated sonic hedgehog signaling with the small molecule SAG at concentrations between 10 nM and 100 nM (FIG. 4B). We performed a SAG dose-response curve in the presence of the Wnt inhibitor IWP2 in an otherwise growth-factor free neural induction media.

The mark [2] stands for this setting: lowest concentration of SAG (10 nM), with IWP2, day 28 organoids.

Each structure is given as a SMILES string. Entries after “also recorded” stand apart in the source; their conditions may differ.

Consider `CN[C@H]1CC[C@H](N(Cc2cccc(-c3ccncc3)c2)C(=O)c2sc3ccccc3c2Cl)CC1` [SAG, 3-Chloro-N-[trans-4-(methylamino)cyclo-hexyl]-N-[[3-(4-pyridinyl)phenyl]methyl]benzo[b]thiophene-2-carboxamide], for which the “concentration sufficient to introduce maximal FOXA2 expression levels” value in experiment [1] was determined as 300 nM. In the experiment on striatal organoids (25 nM SAG treated organoids compared with SAG10 treated organoids), the CTIP2 expression entry is reported as “much lower; also recorded: significantly lower”. For the same compound, in the experiment on striatal organoids (setting [2]), the “rosettes expressing the LGE marker GSX2” value was “high level” and the “rosettes expressing the more dorsal marker PAX6” value is recorded as “low number”.
